Assay [1] deals with HeLa. Description: Induction of apoptosis in human HeLa cells under high glucose condition assessed as nuclear fragmentation at 5 uM after 24 hrs by DAPI staining-based fluorescence microscopic analysis. In kind it is functional, cell-based.
Assay [2] relates to NCI-H522. Description: Growth inhibition of human NCI-H522 cells after 48 hrs by CellTiter-Glo assay in presence of 25 mM glucose. To be noted: NCI-H522, 48 h. In kind it is functional. (In general: Cellular ATP, detected with luciferase, serves as a proxy for viable cell number.)
The target of assay [3] is T1, Lactoylglutathione lyase (Homo sapiens, UniProt Q04760). The assay is described as follows: Competitive binding affinity to monomeric form of GLO-1 in HEK293T cell lysate at 20 uM after overnight incubation followed by UV-irradiation for 1 hr by fluorescence assay in presence of N-(4-(4-(5-fluoro-4-(2-(methylsulfonamido)phenylamino)pyrimidin-2-ylamino)benzoyl)phenyl)hex-5-ynamide. It counts as cell-based. To be noted: HEK-293T.
Target sequence in this assay (Q04760 2-184 limits assumed): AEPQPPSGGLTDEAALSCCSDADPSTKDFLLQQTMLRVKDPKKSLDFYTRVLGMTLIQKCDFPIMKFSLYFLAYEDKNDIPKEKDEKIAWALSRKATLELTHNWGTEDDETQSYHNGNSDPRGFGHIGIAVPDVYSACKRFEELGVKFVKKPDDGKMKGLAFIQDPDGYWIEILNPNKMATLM

For assay [4], the target named is T1, Lactoylglutathione lyase. Description: Competitive binding affinity to GLO-1 in human HeLa cells at 100 uM incubated for 6 hrs followed by UV-irradiation for 1 hr by fluorescence microscopic analysis in presence of N-(4-(4-(5-fluoro-4-(2-(methylsulfonamido)phenylamino)pyrimidin-2-ylamino)benzoyl)phenyl)hex-5-ynamide. It counts as cell-based.
Target sequence in this assay (Q04760 2-184 limits assumed): as above
In assay [5] the test system is HeLa. The assay is described as follows: Growth inhibition of human HeLa cells after 48 hrs by CellTiter-Glo assay in presence of 25 mM glucose. In kind it is functional.
The subject of assay [6] is A549. The assay is described as follows: Growth inhibition of human A549 cells after 48 hrs by CellTiter-Glo assay in presence of 5 mM glucose. In kind it is functional. To be noted: A549, 48 h.
Assay [7] has as its target T1, Lactoylglutathione lyase. The assay is described as follows: Competitive binding affinity to monomeric form of GLO-1 in HEK293T cells at 20 uM incubated for 6 hrs followed by UV-irradiation for 1 hr by fluorescence assay in presence of N-(4-(4-(5-fluoro-4-(2-(methylsulfonamido)phenylamino)pyrimidin-2-ylamino)benzoyl)phenyl)hex-5-ynamide. It counts as cell-based. To be noted: HEK-293T.
Target sequence in this assay (Q04760 2-184 limits assumed): as above

In assay [8] the test system is HeLa. Description: Induction of apoptosis in human HeLa cells under high glucose condition assessed as caspase-3 degradation at 1 to 50 uM after 24 hrs by Western blotting analysis. It counts as functional, cell-based. Background: Immunoblotting shows a protein as a band on a membrane.
The subject of assay [9] is NCI-H522. The assay is described as follows: Growth inhibition of human NCI-H522 cells after 48 hrs by CellTiter-Glo assay in presence of 5 mM glucose. To be noted: NCI-H522, 48 h. In kind it is functional.
The target in assay [10] is T1, Lactoylglutathione lyase. Description: Inhibition of GLO-1 in human HeLa cells under high glucose condition assessed as increase in methylglyoxal level at 5 uM after 24 hrs by spectrophotometric analysis. It counts as cell-based.
Target sequence in this assay (Q04760 2-184 limits assumed): as above
The target in assay [11] is T1, Lactoylglutathione lyase. Description: Competitive binding affinity to dimeric form of GLO-1 in HEK293T cell lysate at 20 uM after overnight incubation followed by UV-irradiation for 1 hr by fluorescence assay in presence of N-(4-(4-(5-fluoro-4-(2-(methylsulfonamido)phenylamino)pyrimidin-2-ylamino)benzoyl)phenyl)hex-5-ynamide. It counts as cell-based. To be noted: HEK-293T.
Target sequence in this assay (Q04760 2-184 limits assumed): as above

For assay [12], the target named is T1, Lactoylglutathione lyase. Description: Inhibition of recombinant GLO-1 (unknown origin) assessed as S-D-lactoylglutathione formation preincubated for 1 hr followed by methylglyoxal and GSH addition measured after 9 mins by spectrophotometric analysis.
Target sequence in this assay (Q04760 whole entry): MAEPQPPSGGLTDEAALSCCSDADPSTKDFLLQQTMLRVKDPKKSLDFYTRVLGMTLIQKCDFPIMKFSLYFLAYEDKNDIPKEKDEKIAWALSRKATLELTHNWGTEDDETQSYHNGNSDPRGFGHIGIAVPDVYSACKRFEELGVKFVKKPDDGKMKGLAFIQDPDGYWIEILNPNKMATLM
The target of assay [13] is T1, Lactoylglutathione lyase. Description: Competitive binding affinity to dimeric form of GLO-1 in HEK293T cells at 20 uM incubated for 6 hrs followed by UV-irradiation for 1 hr by fluorescence assay in presence of N-(4-(4-(5-fluoro-4-(2-(methylsulfonamido)phenylamino)pyrimidin-2-ylamino)benzoyl)phenyl)hex-5-ynamide. It counts as cell-based. To be noted: HEK-293T.
Target sequence in this assay (Q04760 2-184 limits assumed): as the sequence (Q04760 2-184 limits assumed) above
In assay [14] the test system is HeLa. The assay is described as follows: Growth inhibition of human HeLa cells after 48 hrs by CellTiter-Glo assay in presence of 5 mM glucose. In kind it is functional.
For assay [15], the system named is A549. The assay is described as follows: Growth inhibition of human A549 cells after 48 hrs by CellTiter-Glo assay in presence of 25 mM glucose. It counts as functional. To be noted: A549, 48 h.
Assay [16] has as its system HeLa. Description: Ratio of GI50 for human HeLa cells in presence of 5 mM glucose to GI50 for human HeLa cells in presence of 25 mM glucose. In kind it is functional.
Assay [17] deals with T1, Lactoylglutathione lyase. Description: Competitive binding affinity to human recombinant GLO-1 at 50 uM in presence of N-(4-(4-(5-fluoro-4-(2-(methylsulfonamido)phenylamino)pyrimidin-2-ylamino)benzoyl)phenyl)-5-((3aS,4S,6aR)-2-oxohexahydro-1H-thieno[3,4-d]imidazol-4-yl)pentanamide.
The target in assay [18] is T1, Lactoylglutathione lyase. The assay is described as follows: Competitive binding affinity to GLO-1 in HEK293T cell lysate at 50 uM after overnight incubation followed by UV-irradiation for 1 hr by pull-down assay in presence of N-(4-(4-(5-fluoro-4-(2-(methylsulfonamido)phenylamino)pyrimidin-2-ylamino)benzoyl)phenyl)-5-((3aS,4S,6aR)-2-oxohexahydro-1H-thieno[3,4-d]imidazol-4-yl)pentanamide. To be noted: HEK-293T. In kind it is cell-based.

The target in assay [19] is T1, Lactoylglutathione lyase. Description: Binding affinity to GLO-1 in live HEK293T cells by pull-down assay. To be noted: HEK-293T. It counts as cell-based.
For assay [20], the target named is T1, Lactoylglutathione lyase. Description: Competitive binding affinity to GLO-1 in HEK293T cell lysate at 50 uM after overnight incubation followed by UV-irradiation for 1 hr by Western blotting analysis in presence of N-(4-(4-(5-fluoro-4-(2-(methylsulfonamido)phenylamino)pyrimidin-2-ylamino)benzoyl)phenyl)-5-((3aS,4S,6aR)-2-oxohexahydro-1H-thieno[3,4-d]imidazol-4-yl)pentanamide. It counts as cell-based. To be noted: HEK-293T.

Each structure is given as a SMILES string. The source made the active and inactive calls. No cut-off for these calls is given here. Bounds are passed on as bounds.

Consider five molecules from ChEMBL document CHEMBL3217753, “Discovery of selective 2,4-diaminopyrimidine-based photoaffinity probes for glyoxalase I” (Medchemcomm, 2014).

A word on the GI50: it is the concentration at which growth is held to half of that of the control. The term IC50 denotes the concentration at which inhibition is half-maximal.

For the molecule `C#CCCCC(=O)Nc1ccc(C(=O)c2ccc(Nc3ncc(F)c(Nc4ccccc4NS(C)(=O)=O)n3)cc2)cc1`, the outcome with HeLa [1], on Lactoylglutathione lyase [3], on Lactoylglutathione lyase [4], at Lactoylglutathione lyase [7], with HeLa [8] and at Lactoylglutathione lyase [11] was Active. At Lactoylglutathione lyase [13], the result was Active. Also, the concentration for 50% growth inhibition (GI50) with NCI-H522 [2] is 2.9 µM; with HeLa [5] it was 4.6 µM; with A549 [6], 15.5 µM; with NCI-H522 [9] it was 2.7 µM; with HeLa [14] it was 5.7 µM; in the assay on A549 [15], 13.3 µM. The inhibition result at Lactoylglutathione lyase [10] was “Active”. Besides, the IC50 at Lactoylglutathione lyase [12] was determined as 0.0264 µM.

With `CS(=O)(=O)Nc1ccccc1Nc1nc(Nc2ccc(C(=O)OCc3ccccc3)cc2)ncc1F`, the “Ratio IC50” value with HeLa [16] was 2.6. Besides, the GI50 with NCI-H522 [2] is 16.5 µM; with HeLa [5], 37 µM; in the assay with A549 [6], more than 50 µM; in the assay on NCI-H522 [9], 40.2 µM; in the assay with HeLa [14], 61.9 µM; in the assay with A549 [15], more than 50 µM. Further, the IC50 on Lactoylglutathione lyase [12] amounted to 0.0513 µM.

With `CS(=O)(=O)Nc1ccccc1Nc1nc(Nc2ccc(Cl)cc2)ncc1F`, the “Ratio IC50” value in the assay with HeLa [16] turned out to be 2.6. Besides, the 50% growth inhibitory concentration (GI50) is 12.2 µM in the assay with NCI-H522 [2]; 23.2 µM in the assay on HeLa [5]; more than 50 µM in the assay with A549 [6]; 25 µM in the assay with NCI-H522 [9]; 61 µM in the assay on HeLa [14]; more than 50 µM with A549 [15]. The IC50 at Lactoylglutathione lyase [12] is 0.0539 µM.

As for `CS(=O)(=O)Nc1ccccc1Nc1nc(Nc2ccc(Oc3ccccc3)cc2)ncc1F`, the “Ratio IC50” value in the assay on HeLa [16] is recorded as 2.6. Moreover, the GI50 in the assay on NCI-H522 [2] worked out at 7.3 µM; with HeLa [5], 7.3 µM; with A549 [6], 37.4 µM; in the assay on NCI-H522 [9] it was 8.3 µM; with HeLa [14] it was 14 µM; in the assay with A549 [15], 26.9 µM. Moreover, the IC50 on Lactoylglutathione lyase [12] came out at 0.0458 µM.

With `CS(=O)(=O)Nc1ccccc1Nc1nc(Nc2ccc(C(=O)c3ccc(NC(=O)CCCC[C@@H]4SC[C@@H]5NC(=O)N[C@@H]54)cc3)cc2)ncc1F`, the result at Lactoylglutathione lyase [17], on Lactoylglutathione lyase [18] and on Lactoylglutathione lyase [20] was Active. Besides, at Lactoylglutathione lyase [19], the outcome was inactive.
